One may read the EC50 as the concentration that produces a half-maximal response. What is called Emax is the greatest response seen or fitted, relative to the assay's reference. One may read the solubility as the dissolved amount per volume that the medium holds.

For four compounds, EC50, Emax and solubility results are on record in US12679878B2, “CRF2 receptor agonists and their use in therapy” (SANOFI, priority 2020, dated 2026).

Series [1] has as its target T1, human CRF2α receptor (Homo sapiens, UniProt Q13324).
T1 construct: expressed in transfected cells; host or cells: TeloHEAC
T1 sequence (Q13324 1-411): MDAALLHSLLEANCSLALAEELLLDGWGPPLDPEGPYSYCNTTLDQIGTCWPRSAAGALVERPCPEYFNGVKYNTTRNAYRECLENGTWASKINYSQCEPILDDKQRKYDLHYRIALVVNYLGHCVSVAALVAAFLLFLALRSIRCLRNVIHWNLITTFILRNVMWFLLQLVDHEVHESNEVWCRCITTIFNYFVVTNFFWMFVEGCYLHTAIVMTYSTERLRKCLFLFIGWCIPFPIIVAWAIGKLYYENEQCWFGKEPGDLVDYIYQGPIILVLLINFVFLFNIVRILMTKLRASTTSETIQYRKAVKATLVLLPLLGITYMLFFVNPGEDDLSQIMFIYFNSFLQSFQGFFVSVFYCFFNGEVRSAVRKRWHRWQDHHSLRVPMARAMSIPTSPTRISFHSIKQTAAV
Put plainly: cAMP agonism at human CRF2 α receptor in TeloHEAC cells (Example 7). In kind it is cell-based. The note with it: cAMP HTRF, TeloHEAC cells stably expressing human CRF2 α, 0% HSA; read-out: EC50 [nM], 0% HSA. An outline of the steps: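 Percent activation was referenced to 1000 nM UCN2 (100%), and EC50 values taken as concentrations giving half of maximal response. The read-out was a homogeneous time-resolved fluorescence cAMP kit, fluorescence ratio 665/620 nm. Thawed cells (2000/well) saw compound for 30 min at RT in buffer with 2 mM IBMX and 0%/0.1% HSA.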
For orientation: TR-FRET usually uses a lanthanide donor and a delayed reading to cut background.

The target in series [2] is T2, CRF1R receptor (Homo sapiens, UniProt P34998).
T2 construct: host or cells: CHO-K1 clone 2
T2 sequence (P34998 24-415): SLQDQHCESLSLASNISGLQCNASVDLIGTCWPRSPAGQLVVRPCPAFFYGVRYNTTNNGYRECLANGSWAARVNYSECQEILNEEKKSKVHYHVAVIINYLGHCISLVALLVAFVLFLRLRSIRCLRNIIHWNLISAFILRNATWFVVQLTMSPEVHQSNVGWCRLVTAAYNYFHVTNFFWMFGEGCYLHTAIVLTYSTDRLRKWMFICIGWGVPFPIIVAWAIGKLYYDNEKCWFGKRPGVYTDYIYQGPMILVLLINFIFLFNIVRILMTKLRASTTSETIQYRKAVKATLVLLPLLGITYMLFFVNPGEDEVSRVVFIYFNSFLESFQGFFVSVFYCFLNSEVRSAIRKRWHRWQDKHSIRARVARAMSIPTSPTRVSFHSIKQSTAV
Put plainly: cAMP activity at anti-target CRF1R, CRF1R-overexpression CHO cell line (Example 9). Particulars: CRF1R-overexpression CHO cell line; for EC50: 0% HSA; for Emax: read-out: Emax (%). Format: cell-based. An outline of the steps:
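cAMP accumulation was read by HTRF after 30 min at room temperature of compound treatment. Cells were cryopreserved CHO cells overexpressing CRF1R, plated at 2000/well in IBMX (2 mM)-containing HBSS/HEPES buffer with 0 or 0.1% HSA. Activity was normalized to 1000 nM UCN2 as 100%.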

A short description of series [3]: Solubility in buffer systems by UPLC-UV (Example 13). Format: physicochemical. On the procedure:
Prior to performing the solubility measurements, the purity of the compounds was determined through UPLC/MS. […] Therefore, solutions from solid samples were prepared in a buffer system with a concentration of 10 mg/mL compound based on the previously determined % purity.
UPLC-UV was performed after 1 hour of gentle agitation from the supernatant, which was obtained after 15 minutes of centrifugation at 2500 RCF (relative centrifugal acceleration). The solubility was determined by the comparison of the UV peak area of a 2 μL-injection of a buffered sample diluted 1:10 with a standard curve of a reference compound with known concentration. The different UV extinction coefficients of sample and reference compound were calculated based on the different amino acid sequences and considered in the concentration calculation.

Series [4] relates to rat CRF2R α receptor. Kind of series: cAMP agonism at rat CRF2R α receptor in A7R5 rat aortic smooth muscle cells (Example 8). Format: cell-based. The note with it: cAMP HTRF, A7R5 rat aortic smooth muscle cell line, 0% HSA. The method in brief:
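Thawed cryopreserved A7R5 cells in HBSS/20 mM HEPES (0 or 0.1% HSA) with 2 mM IBMX, 2000 cells/well, were exposed to compound for 30 min at room temperature. cAMP was read by HTRF (665/620 nm ratio) after 1 h with lysis reagents. Activity was normalised to 1000 nM urocortin 2 as 100%, and EC50 was taken as the concentration giving 50% of maximal activation.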

The mark [5] stands for this setting: pH 4.5, Solubility in Buffer A [mg/ml].
Where [6] appears, read: pH 7.4, Solubility in Buffer C [mg/ml].
[7] abbreviates: pH 4.5, Solubility in Buffer B [mg/ml].

Molecules are shown by their SMILES. ≈ marks a conversion by molar mass, not a printed value. Starred links: 1 amine or outer side, 2 acyl side, 3 side chain; linkers in the order of their positions; H or OH if unused. Non-standard residues stand in square brackets, D forms with d. Residues, ends and D or L forms follow the SMILES beside them. Groups on a side chain read outwards from the residue. *: point of attachment. γGlu = O=C(O)[C@H](CCC(=O)[*:2])N[*:1]; Palmitoyl = CCCCCCCCCCCCCCCC(=O)*; Aib = CC(C)(N)C(=O)O Where only a bound is given, the exact number is not on record here.

As to `CCCCCCCCCCCCCCCC(=O)N[C@@H](CCC(=O)NCCCC[C@H](NC(=O)[C@@H](NC(=O)[C@H](CCCCN)NC(=O)[C@@H](NC(=O)[C@@H]1CCCN1C(=O)[C@@H](NC(=O)[C@H](CC(=O)O)NC(=O)[C@H](CC(C)C)NC(=O)[C@H](CO)NC(=O)[C@H](CC(C)C)NC(=O)[C@@H](NC(=O)[C@@H](N)Cc1ccccc1)[C@@H](C)O)C(C)C)[C@@H](C)O)[C@@H](C)CC)C(=O)N[C@@H](CCC(N)=O)C(=O)N[C@@H](CCCCN)C(=O)N[C@@H](CC(C)C)C(=O)N[C@@H](CC(C)C)C(=O)N[C@@H](CCCCN)C(=O)N[C@@H](CCC(N)=O)C(=O)N[C@@H](CCC(=O)O)C(=O)N[C@@H](CCCCN)C(=O)N[C@@H](CCC(N)=O)C(=O)N[C@@H](CCCNC(=N)N)C(=O)N[C@@H](CCCCN)C(=O)N[C@@H](CCC(N)=O)C(=O)N[C@@H](CCCCN)C(=O)N[C@@H](CCC(N)=O)C(=O)N[C@@H](CCCCN)C(=O)N[C@@H](C)C(=O)N[C@@H](CCCCN)C(=O)N[C@H](C(=O)N[C@@H](CC(N)=O)C(=O)N[C@@H](C)C(=O)N[C@@H](CCCCN)C(=O)N[C@H](C(=O)N[C@@H](CC(C)C)C(=O)N[C@@H](C)C(=O)N[C@@H](CCCNC(=N)N)C(=O)N[C@H](C(N)=O)C(C)C)[C@@H](C)CC)[C@@H](C)O)C(=O)O` [compound 14] (H-FTLSLDVPTKIK([γGlu-Palmitoyl])QKLLKQEKQRKQKQKAKTNAKILARV-NH2; N-terminus assumed), the EC50 in series [1] is 0.18 nM; in series [2], over 1000 nM. Besides, the Emax in series [2] was 14.1%. Further, the solubility at 1 h in series [3] (setting [5]) was over 9100 µg/mL; in series [3] (setting [6]) it was over 8700 µg/mL.

Take `CCCCCCCCCCCCCCCC(=O)N[C@@H](CCC(=O)NCCCC[C@H](NC(=O)[C@H](CC(C)C)NC(=O)[C@H](CCCCN)NC(=O)[C@@H](NC(=O)[C@@H]1CCCN1C(=O)[C@H](NC(=O)[C@H](CC(=O)O)NC(=O)[C@H](CC(C)C)NC(=O)[C@H](CO)NC(=O)[C@H](CC(C)C)NC(=O)[C@@H](NC(=O)[C@@H](N)[C@@H](C)CC)C(C)C)C(C)C)[C@@H](C)O)C(=O)N[C@@H](CCC(N)=O)C(=O)N[C@@H](CCCCN)C(=O)N[C@@H](CC(C)C)C(=O)N[C@@H](CC(C)C)C(=O)N[C@@H](CCCCN)C(=O)N[C@@H](CCC(N)=O)C(=O)N[C@@H](CCC(=O)O)C(=O)N[C@@H](CCCNC(=N)N)C(=O)N[C@@H](CCC(N)=O)C(=O)N[C@@H](CCCNC(=N)N)C(=O)N[C@@H](CCCCN)C(=O)N[C@@H](CCC(=O)O)C(=O)N[C@@H](CCCNC(=N)N)C(=O)N[C@@H](CCC(=O)O)C(=O)N[C@@H](CCC(N)=O)C(=O)N[C@@H](C)C(=O)N[C@@H](CCC(=O)O)C(=O)N[C@@H](CCCCN)C(=O)N[C@@H](CC(N)=O)C(=O)N[C@@H](CCCCN)C(=O)N[C@@H](CCCNC(=N)N)C(=O)N[C@H](C(=O)N[C@@H](CC(C)C)C(=O)N[C@@H](CCC(=O)O)C(=O)N[C@@H](CCCNC(=N)N)C(=O)N[C@H](C(N)=O)C(C)C)[C@@H](C)CC)C(=O)O` [compound 18] (H-IVLSLD[dV]PTKLK([γGlu-Palmitoyl])QKLLKQERQRKEREQAEKNKRILERV-NH2): the EC50 stood at 0.03 nM in series [1] and 0.02 nM in series [4]. Moreover, the solubility at 1 h in series [3] (setting [5]) was over 10200 µg/mL; in series [3] (setting [7]) it was over 9300 µg/mL.

Regarding `CCCCCCCCCCCCCCCC(=O)N[C@@H](CCC(=O)NCCCC[C@H](NC(=O)[C@H](CC(C)C)NC(=O)[C@H](CCCCN)NC(=O)[C@@H](NC(=O)[C@@H]1CCCN1C(=O)[C@H](NC(=O)[C@H](CC(=O)O)NC(=O)[C@H](CC(C)C)NC(=O)[C@H](CO)NC(=O)[C@H](CC(C)C)NC(=O)[C@@H](NC(=O)[C@@H](N)[C@@H](C)CC)C(C)C)C(C)C)[C@@H](C)O)C(=O)N[C@@H](CCC(N)=O)C(=O)N[C@@H](CCCCN)C(=O)N[C@@H](CC(C)C)C(=O)N[C@@H](CC(C)C)C(=O)N[C@@H](CCCCN)C(=O)N[C@@H](CCC(N)=O)C(=O)N[C@@H](CCC(=O)O)C(=O)N[C@@H](CCCNC(=N)N)C(=O)N[C@@H](CCC(N)=O)C(=O)N[C@@H](CCCNC(=N)N)C(=O)NC(C)(C)C(=O)N[C@@H](CCC(=O)O)C(=O)N[C@@H](CCCNC(=N)N)C(=O)N[C@@H](CCC(=O)O)C(=O)N[C@@H](CCC(N)=O)C(=O)N[C@@H](C)C(=O)N[C@@H](CCC(=O)O)C(=O)N[C@@H](CCCCN)C(=O)N[C@@H](CC(N)=O)C(=O)N[C@@H](CCCCN)C(=O)N[C@@H](CCCNC(=N)N)C(=O)N[C@H](C(=O)N[C@@H](CC(C)C)C(=O)N[C@@H](CCC(=O)O)C(=O)N[C@@H](CCCNC(=N)N)C(=O)N[C@H](C(N)=O)C(C)C)[C@@H](C)CC)C(=O)O` [compound 19] (H-IVLSLD[dV]PTKLK([γGlu-Palmitoyl])QKLLKQERQR[Aib]EREQAEKNKRILERV-NH2; N-terminus assumed), the EC50 in series [1] amounted to 0.01 nM. Further, in series [2], the Emax was 57.4%. Moreover, the solubility at 1 h in series [3] (setting [5]) was over 10200 µg/mL; in series [3] (setting [7]) it was over 10800 µg/mL; in series [3] (setting [6]), 5700 µg/mL (≈ 1150 µM).

For `CCCCCCCCCCCCCCCC(=O)N[C@@H](CCC(=O)NCCCC[C@H](NC(=O)[C@H](CC(C)C)NC(=O)[C@H](CCCCN)NC(=O)[C@@H](NC(=O)[C@@H]1CCCN1C(=O)[C@H](NC(=O)[C@H](CC(=O)O)NC(=O)[C@H](CC(C)C)NC(=O)[C@H](CO)NC(=O)[C@H](CC(C)C)NC(=O)[C@@H](NC(=O)[C@@H](N)[C@@H](C)CC)C(C)C)C(C)C)[C@@H](C)O)C(=O)N[C@@H](CCC(N)=O)C(=O)N[C@@H](CCCCN)C(=O)N[C@@H](CC(C)C)C(=O)N[C@@H](CC(C)C)C(=O)N[C@@H](CCCCN)C(=O)N[C@@H](CCC(N)=O)C(=O)N[C@@H](CCC(=O)O)C(=O)N[C@@H](CCCNC(=N)N)C(=O)N[C@@H](CCC(N)=O)C(=O)N[C@@H](CCCNC(=N)N)C(=O)N[C@@H](CCCCN)C(=O)N[C@@H](CCC(=O)O)C(=O)N[C@@H](CCCNC(=N)N)C(=O)N[C@@H](CCC(=O)O)C(=O)N[C@@H](CCC(N)=O)C(=O)N[C@@H](C)C(=O)N[C@@H](CCC(=O)O)C(=O)N[C@@H](CCCCN)C(=O)N[C@@H](CC(N)=O)C(=O)N[C@H](C(=O)N[C@@H](CCCNC(=N)N)C(=O)N[C@H](C(=O)N[C@@H](CC(C)C)C(=O)N[C@@H](CCC(=O)O)C(=O)N[C@@H](CCCNC(=N)N)C(=O)N[C@H](C(N)=O)C(C)C)[C@@H](C)CC)C(C)C)C(=O)O` [compound 32] (H-IVLSLD[dV]PTKLK([γGlu-Palmitoyl])QKLLKQERQRKEREQAEKNVRILERV-NH2), the half-maximal effective concentration (EC50) in series [1] amounted to 0.01 nM. Besides, in series [2], the EC50 is over 1000 nM and the Emax was 27%. Also, the solubility at 1 h in series [3] (setting [6]) is 8600 µg/mL (≈ 1730 µM).
